# Assay results as given in patent publication US7772246B2 (Pfizer Inc., priority 2007, dated 2010).
# Where two headings read alike, the source gives them in different places.
# How the values were obtained:
# b-Raf [1] = target: T1, b-Raf (Homo sapiens, UniProt P15056); experiment: Raf biochemical assay (in vitro kinase assay, 32-P transfer from ATP to Mek1); conditions: full-length wild type b-Raf, Mek1 substrate; for inhibition at 1 µM: @ 1 μM compound, read-out: b-Raf % inhib @ 1 μM; for Ki: 25 μM ATP
# T1 construct: Full-length wild type b-Raf is expressed in recombinant form and purified from bacterial or insect cells; made in house; host or cells: bacterial or insect cells
# T1 sequence (P15056 whole entry): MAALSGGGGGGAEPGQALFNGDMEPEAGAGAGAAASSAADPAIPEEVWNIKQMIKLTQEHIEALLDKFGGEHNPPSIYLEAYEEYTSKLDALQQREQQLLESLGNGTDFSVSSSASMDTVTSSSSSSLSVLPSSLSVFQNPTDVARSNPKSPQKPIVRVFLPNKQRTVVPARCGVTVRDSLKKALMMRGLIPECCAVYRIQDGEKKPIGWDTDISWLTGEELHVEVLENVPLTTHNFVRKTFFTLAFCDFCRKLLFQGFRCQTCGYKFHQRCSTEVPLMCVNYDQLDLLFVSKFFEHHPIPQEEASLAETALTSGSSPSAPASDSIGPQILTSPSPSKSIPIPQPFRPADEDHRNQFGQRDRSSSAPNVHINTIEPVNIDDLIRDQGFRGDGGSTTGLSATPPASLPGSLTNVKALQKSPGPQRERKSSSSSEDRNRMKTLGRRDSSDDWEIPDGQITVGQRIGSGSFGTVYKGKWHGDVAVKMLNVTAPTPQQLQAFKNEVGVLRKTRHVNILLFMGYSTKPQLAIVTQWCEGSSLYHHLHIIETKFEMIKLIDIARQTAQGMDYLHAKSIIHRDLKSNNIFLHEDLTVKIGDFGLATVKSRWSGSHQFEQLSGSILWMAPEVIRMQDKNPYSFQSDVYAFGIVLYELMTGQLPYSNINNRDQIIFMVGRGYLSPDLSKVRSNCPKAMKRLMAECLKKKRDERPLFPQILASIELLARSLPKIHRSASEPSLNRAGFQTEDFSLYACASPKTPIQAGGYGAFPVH
# Procedure: Compounds of the present invention were evaluated for potency against b-Raf using an in vitro kinase assay. Raf kinase activity is measured in vitro by determining transfer of radiolabeled 32-P phosphate from ATP to the specific Raf substrate Mek1. Full-length wild type b-Raf is expressed in recombinant form and purified from bacterial or insect cells. Recombinant Mek1 is purified from E. coli bacterial cells. In one assay format (designated G1), the full-length wild type Mek1 is used as the b-Raf substrate. In a second assay format (designated G2), the full-length K97R Mek1 mutant is used as the b-Raf substrate.
# In vitro kinase assays are performed in solution containing the following; 50 mM Hepes (pH 7.4), 5 nM b-Raf, 0.8 μM Mek1, 10 mM MgCl2, 25 μM ATP, 0.002% (v/v) Tween-20, 5 μg/mL leupeptin, 1.2 mM DTT, 2% (v/v) DMSO, 0.2-1.0 μCi [γ-^32P]ATP per well.
# The assays are performed in wells of a 96 well polypropylene round bottom plate, each well containing 43.5 μL assay mix and 1.5 μL inhibitor compound or DMSO vehicle. 15 μL of b-Raf mix is added and the plate is shaken on a plate shaker and preincubated for 10 minutes at ambient temperature. The reaction is started by addition of 15 μL ATP mix and shaking. The reaction is terminated after 40 minutes by addition of 25 μL 0.5 M EDTA (pH 7.4).
# 60 μL of the stopped reaction is transferred to a well of a 96-well nylon 66 Biodyne A membrane Silent Screen filter plate (Nalge/Nunc: 256081). The wells are filtered and washed five times with 0.85% phosphoric acid. The filter is placed in a tray with about 50 mL 0.85% phosphoric acid and gently rotated for 10 minutes on an orbital shaker. The procedure is repeated once with fresh 0.85% phosphoric acid. Five samples of 0.5 μL of ATP mix are also spotted onto filter paper for calculation of specific activity. The filters are air dried for one hour and sandwiched between cellophane wrap on an Amersham Biosciences Storage Phosphor Screen and developed at least over night. The image is read using a Molecular Dynamics Storm 840 phosphoimager. Volumes of spots are calculated using ImageQuant5.1.
# Raf kinase activity is calculated from the specific activity of [32-P] ATP, 32-P incorporation into Mek1, and the concentration of b-Raf.
# b-Raf [2] = target: T2, b-Raf (Homo sapiens, UniProt P15056, V600E); experiment: Raf cellular assay (phospho-Mek1/2 ELISA in A2058 cells); format: cell-based; conditions: human melanoma A2058 cells (b-Raf mutation), Mek1/2 Ser217/221 phosphorylation, 1 hour incubation, read-out: pMEK IC50
# T2 construct: endogenous in cells; host or cells: A2058 human melanoma cells
# T2 sequence (P15056 whole entry V600E): as the sequence (P15056 whole entry) above, with V600E counted along it
# Method in brief: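 A2058 melanoma cells (B-Raf mutant), seeded overnight in 10% FBS DMEM, were exposed to compounds (11-point 1:3 series, duplicate) for 1 h at 37 °C. Lysates were captured on anti-Mek1-coated plates and Mek1/2 Ser217/221 phosphorylation was read by anti-phospho-Mek1/2 ELISA, HRP/TMB, 450 nm.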
SMILES,inhibition at 1 µM (b-Raf [1]) [%],Ki (b-Raf [1]) [nM],IC50 (b-Raf [2]; Table 2) [nM],IC50 (b-Raf [2]; Table 3) [nM]
"CC(CO)Nc1nccc(-c2cn(C(C)C)nc2-c2cnc3[nH]ccc3c2)n1 (stereo in doubt) [Example D-9, (2R)-2-({4-[1-isopropyl-3-(1H-pyrrolo[2,3-b]pyridin-5-yl)-1H-pyrazol-4-yl]pyrimidin-2-yl}amino)propan-1-ol]",100,1.6,918,–
"CC(C)n1cc(-c2ccnc(NC[C@H](C)O)n2)c(-c2cnc3[nH]ccc3c2)n1 [Example B-1, (2S)-1-(4-(1-isopropyl-3-(1H-pyrrolo[2,3-b]pyridin-5-yl)-1H-pyrazol-4-yl)pyrimidin-2-ylamino)propan-2-ol]",102,0.5,154,–
"CNc1ccc(-c2nn(C(C)C)cc2-c2ccnc(NC[C@H](C)O)n2)cn1 [Example B-2, (2S)-1-(4-(1-isopropyl-3-(6-(methylamino)pyridin-3-yl)-1H-pyrazol-4-yl)pyrimidin-2-ylamino)propan-2-ol]",97,12,8670,–
"Cc1cc(-c2nn(C(C)C)cc2-c2ccnc(NC[C@H](C)O)n2)cnc1N [Example B-3, (2S)-1-(4-(3-(6-amino-5-methylpyridin-3-yl)-1-isopropyl-1H-pyrazol-4-yl)pyrimidin-2-ylamino)propan-2-ol]",98,11,815,–
"CNc1ncc(-c2nn(C(C)C)cc2-c2ccnc(NC[C@H](C)O)n2)cc1C [Example B-4, (2S)-1-(4-(1-isopropyl-3-(5-methyl-6-(methylamino)pyridin-3-yl)-1H-pyrazol-4-yl)pyrimidin-2-ylamino)propan-2-ol]",74,272,3370,–
"Cc1c[nH]c2ncc(-c3nn(C(C)C)cc3-c3ccnc(NC[C@H](C)O)n3)cc12 [Example B-5, (2S)-1-(4-(1-isopropyl-3-(3-methyl-1H-pyrrolo[2,3-b]pyridin-5-yl)-1H-pyrazol-4-yl)pyrimidin-2-ylamino)propan-2-ol]",–,0.2,7,–
"Cc1[nH]c2ncc(-c3nn(C(C)C)cc3-c3ccnc(NC[C@H](C)O)n3)cc2c1C [Example B-6, (2S)-1-(4-(3-(2,3-dimethyl-1H-pyrrolo[2,3-b]pyridin-5-yl)-1-isopropyl-1H-pyrazol-4-yl)pyrimidin-2-ylamino)propan-2-ol]",–,1.5,44,–
"Cc1cc2cc(-c3nn(C(C)C)cc3-c3ccnc(NC[C@H](C)O)n3)cnc2[nH]1 [Example B-7, (2S)-1-(4-(1-isopropyl-3-(2-methyl-1H-pyrrolo[2,3-b]pyridin-5-yl)-1H-pyrazol-4-yl)pyrimidin-2-ylamino)propan-2-ol]",–,10.3,4010,–
"CC(C)(CO)n1cc(-c2ccnc(NCCC#N)n2)c(-c2cnc3[nH]cc(Cl)c3c2)n1 [Example E-5, 3-({4-[3-(3-chloro-1H-pyrrolo[2,3-b]pyridin-5-yl)-1-(2-hydroxy-1,1-dimethylethyl)-1H-pyrazol-4-yl]pyrimidin-2-yl}amino)-propanenitrile]",–,–,–,0.836
"CC(C)(CO)n1cc(-c2ccnc(N)n2)c(-c2cnc3[nH]cc(Cl)c3c2)n1 [Example E-6, 2-[4-(2-amino-pyrimidin-4-yl)-3-(3-chloro-1H-pyrrolo[2,3-b]pyridin-5-yl)-1H-pyrazol-1-yl]-2-methylpropan-1-ol]",–,–,–,8.98
"CC(C)n1cc(-c2ccncn2)c(-c2cnc3[nH]cc(Cl)c3c2)n1 [Example F-1, 3-chloro-5-(1-isopropyl-4-(pyrimidin-4-yl)-1H-pyrazol-3-yl)-1H-pyrrolo[2,3-b]pyridine]",–,–,–,49.9
"CN1CCC(n2cc(-c3ccncn3)c(-c3cnc4[nH]cc(Cl)c4c3)n2)CC1 [Example F-2, 3-chloro-5-[1-(1-methylpiperidin-4-yl)-4-pyrimidin-4-yl-1H-pyrazol-3-yl]-1H-pyrrolo[2,3-b]pyridine]",–,–,–,196
"COc1cc(-c2nn(C(C)(C)C)cc2-c2ccncn2)cnc1N [Example F-3, 5-(1-tert-butyl-4-pyrimidin-4-yl-1H-pyrazol-3-yl)-3-methoxypyridin-2-amine]",–,–,–,55.4

# Next, values leading:
inhibition at 1 µM (b-Raf [1]) [%],Ki (b-Raf [1]) [nM],IC50 (b-Raf [2]; Table 2) [nM],IC50 (b-Raf [2]; Table 3) [nM],SMILES
–,–,–,16.3,"C[C@H](O)CNc1nccc(-c2cn(C3CCOC3)nc2-c2cnc3[nH]cc(Cl)c3c2)n1 (stereo partly drawn) [Example G-1, (2S)-1-(4-(3-(3-chloro-1H-pyrrolo[2,3-b]pyridin-5-yl)-1-(tetrahydrofuran-3-yl)-1H-pyrazol-4-yl)pyrimidin-2-ylamino)propan-2-ol]"
–,–,–,5.24,"COc1cc(-c2nn(C)cc2-c2ccnc(NCCC#N)n2)cnc1N [Example G-2, 3-({4-[3-(6-amino-5-methoxypyridin-3-yl)-1-methyl-1H-pyrazol-4-yl]pyrimidin-2-yl}amino)propanenitrile]"
–,–,–,22.9,"Cc1n[nH]c2ncc(-c3nn(CC(F)F)cc3-c3ccnc(NCC(F)F)n3)cc12 [Example G-3, N-(2,2-difluoroethyl)-4-[1-(2,2-difluoroethyl)-3-(3-methyl-1H-pyrazolo[3,4-b]pyridin-5-yl)-1H-pyrazol-4-yl]pyrimidin-2-amine]"
–,–,–,774,"Cc1n[nH]c2ncc(-c3nn(CC(F)F)cc3-c3ccnc(NC4CCOC4)n3)cc12 (stereo not drawn) [Example G-4, 4-[1-(2,2-difluoroethyl)-3-(3-methyl-1H-pyrazolo[3,4-b]pyridin-5-yl)-1H-pyrazol-4-yl]-N-(tetrahydrofuran-3-yl)pyrimidin-2-amine]"
–,–,–,19.9,"CC(C)(C#N)n1cc(-c2ccnc(NCCO)n2)c(-c2cnc3[nH]cc(Cl)c3c2)n1 [Example G-5, 2-[3-(3-chloro-1H-pyrollo[2,3-b]pyridin-5-yl)-4-{2-[(2-hydroxyethyl)amino]pyrimidin-4-yl}-1H-pyrazol-1-yl]-2-methylpropanenitrile]"
–,–,–,17.3,"CC(C)(C#N)n1cc(-c2ccnc(N)n2)c(-c2cnc3[nH]cc(Cl)c3c2)n1 [Example G-6, 2-[4-(2-aminopyrimidin-4-yl)-3-(3-chloro-1H-pyrrolo[2,3-b]pyridin-5-yl)-1H-pyrazol-1-yl]-2-methylpropanenitrile]"
–,–,–,28.5,"Cc1cc(-c2nn(CC(F)F)cc2-c2ccnc(NCCC#N)n2)cnc1N [Example G-7, 3-(4-(3-(6-amino-5-methylpyridin-3-yl)-1-(2,2-difluoroethyl)-1H-pyrazol-4-yl)pyrimidin-2-ylamino)-propanenitrile]"
–,–,–,26,"CC(C)n1cc(-c2ccnc(N)c2)c(-c2cnc3[nH]cc(Cl)c3c2)n1 [Example H-1, 4-(3-(3-chloro-1H-pyrrolo[2,3-b]pyridin-5-yl)-1-isopropyl-1H-pyrazol-4-yl)pyridin-2-amine]"
–,–,–,1020,"CC(C)n1cc(-c2ccnc(N)c2)c(-c2cnc3[nH]ccc3c2)n1 [Example H-2, 4-(1-isopropyl-3-(1H-pyrrolo[2,3-b]pyridin-5-yl)-1H-pyrazol-4-yl)pyridin-2-amine]"
–,–,–,427,"CC(C)n1cc(-c2ccnc3[nH]ccc23)c(-c2cnc3[nH]ccc3c2)n1 [Example H-3, 4-(1-isopropyl-3-(1H-pyrrolo[2,3-b]pyridin-5-yl)-1H-pyrazol-4-yl)-1H-pyrrolo[2,3-b]pyridine]"
–,–,–,66.3,"CC(C)n1cc(-c2ccnc3[nH]ccc23)c(-c2cnc3[nH]cc(Cl)c3c2)n1 [Example H-4, 3-chloro-5-(1-isopropyl-4-(1H-pyrrolo[2,3-b]pyridin-4-yl)-1H-pyrazol-3-yl)-1H-pyrrolo[2,3-b]pyridine]"
–,–,–,2790,"COc1nc(-c2nn(CC(F)F)cc2-c2ccnc(NC[C@H](C)O)n2)cnc1N [Example I-1, (2S)-1-({4-[3-(5-amino-6-methoxypyrazin-2-yl)-1-(2,2-difluoroethyl)-1H-pyrazol-4-yl]pyrimidin-2-yl}amino)propan-2-ol]"
–,–,–,20,"CC(C)n1cc(-c2ccnc(NC[C@H](C)O)n2)c(-c2cnc3[nH]cc(Cl)c3n2)n1 [Example I-2, (2S)-1-({4-[3-(7-chloro-5H-pyrrolo[2,3-b]pyrazin-2-yl)-1-isopropyl-1H-pyrazol-4-yl]pyrimidin-2-yl}amino)propan-2-ol]"
